# According to patent US5593984A, “Cephalosporin derivatives” (Yuhan Corporation, priority 1992, dated 1997):
# Legend:
# Assay type in all cases: cell-based
# Prov. stuartii IFO 12930 = assay: MIC by agar dilution, Prov. stuartii IFO 12930; details: Providencia stuartii, IFO12930, 17 h, Mueller-Hinton agar, read-out: Minimal Inhibitory Concentration (MIC)
# Method: (§1) These MIC values were determined by agar dilution method: that is, two-fold dilutions of each of the test compounds were made and dispersed in a Mueller-Hinton agar medium; standard test strain which had the 10^6 CFU (Colony Forming Unit) per ml was inoculated on the medium with microplanter (Toyo, Japan), and incubated at 35°-37° C. for 17±1 hours. The structures of Ceftazidime (CAZ) and Cefotaxime (CTX) which are used as control compounds are as follows: [drawing 12]
# Staph. aureus C-57 = assay: MIC by agar dilution, Staph. aureus C-57; details: Staphylococcus aureus, C57, 17 h, Mueller-Hinton agar, read-out: Minimal Inhibitory Concentration (MIC)
# Method: as §1
# Ent. aerogenes IFO 12979 = assay: MIC by agar dilution, Ent. aerogenes IFO 12979; details: Klebsiella aerogenes, IFO12979, 17 h, Mueller-Hinton agar, read-out: Minimal Inhibitory Concentration (MIC)
# Method: as §1
# [1] = test system: Ps. aeruginosa ATCC 10145; assay: MIC by agar dilution, Ps. aeruginosa ATCC 10145; details: Pseudomonas aeruginosa, ATCC10145, 17 h, Mueller-Hinton agar, read-out: Minimal Inhibitory Concentration (MIC)
# Method: as §1
# Staph. aureus ATCC 6538P = assay: MIC by agar dilution, Staph. aureus ATCC 6538P; details: Staphylococcus aureus, ATCC6538P, 17 h; Staph. aureus ATCC 6538P; agar dilution, Mueller-Hinton agar; read-out: Minimal Inhibitory Concentration (MIC)
# Method: as §1
# Staph. aureus C-5113 = assay: MIC by agar dilution, Staph. aureus C-5113; details: Staphylococcus aureus, C5113, 17 h, Mueller-Hinton agar, read-out: Minimal Inhibitory Concentration (MIC)
# Method: as §1
# B. subtilis ATCC 6633 = assay: MIC by agar dilution, B. subtilis ATCC 6633; details: Bacillus subtilis, ATCC6633, 17 h; B. subtilis ATCC 6633; agar dilution, Mueller-Hinton agar; read-out: Minimal Inhibitory Concentration (MIC)
# Method: as §1
# E. coli DY-1 = assay: MIC by agar dilution, E. coli DY-1; details: Escherichia coli, DY1, 17 h; E. coli DY-1; agar dilution, Mueller-Hinton agar; read-out: Minimal Inhibitory Concentration (MIC)
# Method: as §1
# Ent. cloacae IFO 13535 = assay: MIC by agar dilution, Ent. cloacae IFO 13535; details: Enterobacter cloacae, IFO13535, 17 h; Ent. cloacae IFO 13535; agar dilution, Mueller-Hinton agar; read-out: Minimal Inhibitory Concentration (MIC)
# Method: as §1
# [2] = test system: S. epidermidis ATCC 12228; assay: MIC by agar dilution, S. epidermidis ATCC 12228; details: Staphylococcus epidermidis, ATCC12228, 17 h; S. epidermidis ATCC 12228; agar dilution, Mueller-Hinton agar; read-out: Minimal Inhibitory Concentration (MIC)
# Method: as §1
# E. coli NIHJ JC-2 = assay: MIC by agar dilution, E. coli NIHJ JC-2; details: Escherichia coli, NIHJJC2, 17 h; E. coli NIHJ JC-2; agar dilution, Mueller-Hinton agar; read-out: Minimal Inhibitory Concentration (MIC)
# Method: as §1
# Ps. aeruginosa DY-2 = assay: MIC by agar dilution, Ps. aeruginosa DY-2; details: Pseudomonas aeruginosa, DY2, 17 h; Ps. aeruginosa DY-2; agar dilution, Mueller-Hinton agar; read-out: Minimal Inhibitory Concentration (MIC)
# Method: as §1
# Staph. aureus Smith = assay: MIC by agar dilution, Staph. aureus Smith; details: Staphylococcus aureus, 17 h, Mueller-Hinton agar, read-out: Minimal Inhibitory Concentration (MIC)
# Method: as §1
# E. coli No. 29 = assay: MIC by agar dilution, E. coli No. 29; details: Escherichia coli, 17 h; E. coli No. 29; agar dilution, Mueller-Hinton agar; read-out: Minimal Inhibitory Concentration (MIC)
# Method: as §1
# M. morganii DY-1 = assay: MIC by agar dilution, M. morganii DY-1; details: Morganella morganii, DY1, 17 h; M. morganii DY-1; agar dilution, Mueller-Hinton agar; read-out: Minimal Inhibitory Concentration (MIC)
# Method: as §1
# [3] = test system: Ser. marcescens IFO 12648; assay: MIC by agar dilution, Ser. marcescens IFO 12648; details: Serratia marcescens, IFO12648, 17 h; Ser. marcescens IFO 12648; agar dilution, Mueller-Hinton agar; read-out: Minimal Inhibitory Concentration (MIC)
# Method: as §1
# Staph. aureus C-5216 = assay: MIC by agar dilution, Staph. aureus C-5216; details: Staphylococcus aureus, C5216, 17 h, Mueller-Hinton agar, read-out: Minimal Inhibitory Concentration (MIC)
# Method: as §1
# [4] = test system: Ps. aeruginosa NCTC 10490; assay: MIC by agar dilution, Ps. aeruginosa NCTC 10490; details: Pseudomonas aeruginosa, NCTC10490, 17 h, Mueller-Hinton agar, read-out: Minimal Inhibitory Concentration (MIC)
# Method: as §1
# P. vulgaris NCTC 8313 = assay: MIC by agar dilution, P. vulgaris NCTC 8313; details: Proteus vulgaris, NCTC8313, 17 h; P. vulgaris NCTC 8313; agar dilution, Mueller-Hinton agar; read-out: Minimal Inhibitory Concentration (MIC)
# Method: as §1
# K. pneumoniae NCTC 9632 = assay: MIC by agar dilution, K. pneumoniae NCTC 9632; details: Klebsiella pneumoniae, NCTC9632, 17 h; K. pneumoniae NCTC 9632; agar dilution, Mueller-Hinton agar; read-out: Minimal Inhibitory Concentration (MIC)
# Method: as §1
MIC (Prov. stuartii IFO 12930) [µg/mL],MIC (Staph. aureus C-57) [µg/mL],MIC (Ent. aerogenes IFO 12979) [µg/mL],MIC [1] [µg/mL],MIC (Staph. aureus ATCC 6538P) [µg/mL],MIC (Staph. aureus C-5113) [µg/mL],MIC (B. subtilis ATCC 6633) [µg/mL],MIC (E. coli DY-1) [µg/mL],MIC (Ent. cloacae IFO 13535) [µg/mL],MIC [2] [µg/mL],MIC (E. coli NIHJ JC-2) [µg/mL],MIC (Ps. aeruginosa DY-2) [µg/mL],MIC (Staph. aureus Smith) [µg/mL],MIC (E. coli No. 29) [µg/mL],MIC (M. morganii DY-1) [µg/mL],MIC [3] [µg/mL],MIC (Staph. aureus C-5216) [µg/mL],MIC [4] [µg/mL],MIC (P. vulgaris NCTC 8313) [µg/mL],MIC (K. pneumoniae NCTC 9632) [µg/mL],SMILES
0.012,25,0.1,1.56,0.1,0.39,0.2,0.05,0.39,0.025,0.05,25,0.39,0.05,0.1,0.1,0.39,0.39,0.2,0.1,"Nc1nc(/C(=N\O)C(=O)N[C@@H]2C(=O)N3C(C(=O)[O-])=C(C[n+]4ccn5cccc5c4)CS[C@H]23)cs1 [Ex. 7, 7-β-[(Z)-2-(2-aminothiazol-4-yl)-2-hydroxyiminoacetamido]-3-(pyrrolo[1,2-a]pyrazinium-2-yl)methyl-3-cephem-4-carboxylate]"
0.012,25,0.025,3.13,0.78,3.13,0.39,0.05,0.78,0.1,0.025,12.5,3.13,0.05,0.05,0.05,1.56,0.39,0.05,0.05,"CON=C(C(=O)NC1C(=O)N2C(C(=O)[O-])=C(C[n+]3ccn4c(C=O)ccc4c3)CSC12)c1csc(N)n1 (stereo not drawn) [Ex. 25, 7-β-[(Z)-2-(2-aminothiazol-4-yl)-2-methoxyiminoacetamido]-3-(6-formylpyrrolo[1,2-a]pyrazinium-2-yl)methyl-3-cephem-4-carboxylate]"
0.025,12.5,0.025,1.56,0.2,0.78,0.1,0.012,0.39,0.05,0.05,6.25,0.39,0.012,0.025,0.025,0.78,0.39,0.012,0.025,"CCON=C(C(=O)NC1C(=O)N2C(C(=O)[O-])=C(C[n+]3ccn4c(Cl)ccc4c3)CSC12)c1csc(N)n1 (stereo not drawn) [Ex. 12, 7-β-[(Z)-2-(2-aminothiazol-4-yl)-2-ethoxyiminoacetamido]-3-(6-chloropyrrolo[1,2-a]pyrazinium-2-yl)methyl-3-cephem-4-carboxylate]"
0.025,100,0.025,0.78,3.13,25,3.13,0.05,3.13,1.56,0.2,6.25,12.5,0.1,0.05,0.1,12.5,0.39,≤ 0.006,0.2,"CC(C)(ON=C(C(=O)NC1C(=O)N2C(C(=O)[O-])=C(C[n+]3ccn4cccc4c3)CSC12)c1csc(N)n1)C(=O)O (stereo not drawn) [Ex. 2, 7-β-[(Z)-2-(2-aminothiazol-4-yl)-2-(2-carboxyprop-2-oxyimino)acetamido]-3-(pyrrolo[1,2-a]pyrazinium-2-yl)methyl-3-cephem-4-carboxylate]"
